Measurements published in ChEMBL document CHEMBL3600320, “An oxidative coupling product of luteolin with cysteine ester and its enhanced inhibitory activity for xanthine oxidase” (Bioorg Med Chem Lett, 2015).

Columns and labels:
[1] = target: T1, Xanthine dehydrogenase/oxidase (Homo sapiens, UniProt P47989); experiment: Inhibition of xanthine oxidase (unknown origin) using xanthine as substrate at 33 to 100 umol/L after 10 mins by HPLC method relative to control
[2] = target: T1, Xanthine dehydrogenase/oxidase; experiment: Inhibition of xanthine oxidase (unknown origin) using xanthine as substrate after 10 mins by HPLC method

T1 sequence (P47989 whole entry): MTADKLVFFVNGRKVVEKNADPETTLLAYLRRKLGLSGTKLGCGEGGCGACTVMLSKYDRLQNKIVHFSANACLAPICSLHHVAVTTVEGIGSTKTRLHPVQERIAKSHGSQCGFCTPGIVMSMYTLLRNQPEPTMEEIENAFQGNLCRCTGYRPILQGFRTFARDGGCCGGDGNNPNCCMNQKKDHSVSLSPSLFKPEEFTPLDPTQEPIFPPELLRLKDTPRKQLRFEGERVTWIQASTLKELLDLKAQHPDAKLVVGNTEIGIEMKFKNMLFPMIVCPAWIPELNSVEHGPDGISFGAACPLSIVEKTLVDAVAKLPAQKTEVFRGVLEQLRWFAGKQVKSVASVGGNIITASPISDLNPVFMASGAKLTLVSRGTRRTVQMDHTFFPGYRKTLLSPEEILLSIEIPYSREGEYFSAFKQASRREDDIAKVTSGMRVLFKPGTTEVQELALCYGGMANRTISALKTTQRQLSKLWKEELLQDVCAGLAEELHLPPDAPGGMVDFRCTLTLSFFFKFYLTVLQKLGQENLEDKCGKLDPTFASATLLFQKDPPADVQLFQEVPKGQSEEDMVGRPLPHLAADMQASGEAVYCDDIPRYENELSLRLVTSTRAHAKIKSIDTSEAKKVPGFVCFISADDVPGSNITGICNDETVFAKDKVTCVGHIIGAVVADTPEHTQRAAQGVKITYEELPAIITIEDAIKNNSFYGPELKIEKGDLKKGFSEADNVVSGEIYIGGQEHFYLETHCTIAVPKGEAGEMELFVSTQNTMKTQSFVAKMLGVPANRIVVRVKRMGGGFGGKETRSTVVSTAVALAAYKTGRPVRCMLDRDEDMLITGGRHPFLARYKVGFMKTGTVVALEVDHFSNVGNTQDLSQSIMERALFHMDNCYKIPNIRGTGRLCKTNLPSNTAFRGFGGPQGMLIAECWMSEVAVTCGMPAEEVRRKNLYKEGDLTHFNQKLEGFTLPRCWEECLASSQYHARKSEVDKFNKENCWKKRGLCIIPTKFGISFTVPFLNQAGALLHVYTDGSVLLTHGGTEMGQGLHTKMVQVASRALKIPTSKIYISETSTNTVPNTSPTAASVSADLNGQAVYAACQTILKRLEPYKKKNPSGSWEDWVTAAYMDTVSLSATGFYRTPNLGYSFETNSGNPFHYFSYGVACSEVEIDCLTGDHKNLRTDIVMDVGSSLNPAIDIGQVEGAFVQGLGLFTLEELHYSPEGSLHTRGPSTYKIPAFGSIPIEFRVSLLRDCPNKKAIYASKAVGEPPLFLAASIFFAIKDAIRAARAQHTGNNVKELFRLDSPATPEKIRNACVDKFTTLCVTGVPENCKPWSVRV

SMILES | inhibition (INH) [1] | IC50 [2] | inhibition (INH) ([2]; human, 10 min)
O=c1cc(-c2ccc(O)c(O)c2)oc2cc(O)cc(O)c12 [LUTEOLIN] | > 50% | 7.8 µM | –
CCOC(=O)C1=Nc2c(O)ccc(-c3cc(=O)c4c(O)cc(O)cc4o3)c2SC1 | – | 1.7 µM | Dose-dependent effect
O=c1c(O)c(-c2ccc(O)c(O)c2)oc2cc(O)cc(O)c12 [QUERCETIN] | > 50% | – | –
O=c1c(O)c(-c2cc(O)c(O)c(O)c2)oc2cc(O)cc(O)c12 [MYRICETIN] | > 50% | – | –
O=c1c(O)c(-c2ccc(O)cc2)oc2cc(O)cc(O)c12 [KAEMPFEROL] | > 50% | – | –
